Paper PMC3482300 (Nature, 2012)

How the values were obtained:
[1] = biological target: NTS1-GW5 (Rattus norvegicus, UniProt P20789, A86L/E166A/F358A/G215A/L310A/V360A); test: Competition of [3H]NT binding by SR48692, NTS1-GW5
[2] = tested on: NTS1; settings: cited from earlier work
[3] = tested on: NTS1; settings: cited from earlier work; remark: listed apart in the source

NTS1-GW5, sequence (P20789 43-396 A86L/E166A/G215A/L310A/F358A/V360A): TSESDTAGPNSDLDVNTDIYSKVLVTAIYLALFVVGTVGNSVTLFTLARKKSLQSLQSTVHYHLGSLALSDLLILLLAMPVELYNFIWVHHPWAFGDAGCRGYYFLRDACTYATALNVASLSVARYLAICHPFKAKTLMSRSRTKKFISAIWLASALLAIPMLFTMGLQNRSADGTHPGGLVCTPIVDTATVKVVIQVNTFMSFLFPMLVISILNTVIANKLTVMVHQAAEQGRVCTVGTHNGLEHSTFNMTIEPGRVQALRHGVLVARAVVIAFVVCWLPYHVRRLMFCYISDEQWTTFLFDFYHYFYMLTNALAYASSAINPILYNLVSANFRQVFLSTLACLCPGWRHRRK

COc1cccc(OC)c1-c1cc(C(=O)NC2(C(=O)O)C3CC4CC(C3)CC2C4)nn1-c1ccnc2cc(Cl)ccc12 (stereo not shown) [SR48692]
apparent affinity for SR48692 compared to wild-type [1]: lower

KIPYIL [neuromedin N]
binding to NTS1 [2]: binds

Arg-Arg-Pro-Tyr-Ile-Leu [NT8-13]
efficacy compared to full-length NT [3]: higher potency and efficacy
potency compared to full-length NT [3]: higher potency
